Test system: C. albicans
Assay: In vitro antifungal activity of flavone in combination with azoles, growth via OD490
Assay type: cell-based, Candida albicans
Conditions: OD490, flavone plus azole vs each alone
With `COc1ccccc1-c1cc(=O)c2ccccc2o1` [2′-MF, 2′-methoxyflavone] the “enhancement of the antifungal activity of azoles in the presence of the flavone” value (“enhancement” below) was “enhancement of the antifungal activity”. In the case of `COc1cc(OC)c2c(=O)cc(-c3ccc(OC)c(OC)c3)oc2c1` [3′,4′,5,7-TMF, 3′,4′,5,7-tetrametoxyflavone], the “enhancement” value is reported as “enhancement of the antifungal activity”. For `COc1cc(-c2cc(=O)c3c(OC)c(OC)c(OC)cc3o2)cc(OC)c1OC` [3′,4′,5′,5,6,7-HMF, 3′,4′,5′,5,6,7-hexymethoxyflaovne], the “enhancement” value was “enhancement of the antifungal activity”. With `O=c1cc(-c2ccccc2)oc2ccc3ccccc3c12` [5,6-BF, 5,6-benzoflavone] the “enhancement” value was “enhancement of the antifungal activity”. With `O=c1cc(-c2ccccc2)oc2c1ccc1ccccc12` [7,8-BF, 7,8-benzoflavone] the “enhancement” value was “enhancement of the antifungal activity”. In the case of `COc1ccc2c(=O)cc(-c3ccccc3)oc2c1` [7-MF, 7-methoxyflavone], the “enhancement” value is reported as “enhancement of the antifungal activity”.

Test system: fungi including Aspergillus and Fusarium species
Assay: not given
Conditions: Weidenbörner et al., Mycol. Res. 101 (1997); cited from earlier work
In the case of `O=c1cc(-c2ccccc2)oc2ccccc12` [flavone], the antifungal effect is given as “displays an antifungal effect”.
